Test results published in patent US8735402B2, “Cycloalkyloxycarboxylic acid derivatives” (Sanofi, priority 2011, dated 2014).

Biological target: T1, human Edg-1 receptor (Homo sapiens, UniProt P21453)
T1 construct: FLAG (N); expressed in transfected cells; membrane preparation
Assay: GTP-γ-S assay using human Edg-1 receptors (scintillation proximity assay, CHO Flp-In cell membrane preparation)
Type: biochemical
Conditions: test compound 10 μM; 10 μM S1P regarded as 100% activation; background-corrected; triplicate
Excerpt: Determination of the Pharmacological Activity A) GTP-γ-S Assay Using Human Edg-1 Receptors In order to determine the Edg-1 receptor activation by the compounds of the invention, a GTP-γ-S ((GTP-γ-S=guanosine 5′-[thio]triphosphate) assay for G-protein coupled receptor binding based on the scintillation proximity assay principle was used, employing a cell membrane preparation from a CHO Flp-In cell line which constitutively overexpresses the human Edg-1 receptor. The Flp-In™ expression system (Invitrogen/Life Technologies™ cat. no. K6010-01) allows the generation of stable mammalian cell lines into which the gene of interest has been integrated through […] at a specific genomic location called Flp Recombination Target (FRT) site by means of a Flp recombinase encoded by the pOG44 expression plasmid. […] The EDG-1 membrane preparation obtained in (b) was initially used in a commercial scintillation proximity assay kit (Amersham/GE Healthcare, cat. no. RPNQ0210) to quantify the receptor activation. Here, the ligand-induced binding of ^35S-radiolabeled GTP-γ-S to the receptor-containing membrane causes the emission of light in the scintillation beads attached to the membrane preparation, which allows quantification of the in vitro activity of the Edg-1-agonistic compound. […]

T1 sequence (P21453 whole entry): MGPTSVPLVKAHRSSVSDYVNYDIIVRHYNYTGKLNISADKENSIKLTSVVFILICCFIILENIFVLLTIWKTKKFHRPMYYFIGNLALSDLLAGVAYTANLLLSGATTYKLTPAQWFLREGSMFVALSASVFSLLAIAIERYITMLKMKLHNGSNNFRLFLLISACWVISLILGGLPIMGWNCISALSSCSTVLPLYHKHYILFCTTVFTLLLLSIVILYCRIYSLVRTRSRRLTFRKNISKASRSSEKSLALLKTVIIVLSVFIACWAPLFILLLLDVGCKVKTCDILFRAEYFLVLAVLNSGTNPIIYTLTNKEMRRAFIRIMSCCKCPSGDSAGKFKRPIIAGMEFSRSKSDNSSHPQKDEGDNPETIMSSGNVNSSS

| Compound | Edg-1 receptor activation by example compounds at 10 μM in percent of the activation by 10 μM S1P (% activation) |
| --- | --- |
| Cc1cc(-c2nc3cnc(Oc4cccc(Cl)c4)nc3o2)cc(C)c1OC1CC(C(=O)O)C1 (centres unmarked) [Example 1, 3-{4-[5-(3-Chlorophenoxy)oxazolo[5,4-d]pyrimidin-2-yl]-2,6-dimethylphenoxy}cyclobutanecarboxylic acid] | 116% |
| Cc1cc(-c2nc3cnc(Oc4ccccc4F)nc3o2)cc(C)c1OC1CC(C(=O)O)C1 (centres unmarked) [Example 2, 3-{4-[5-(2-Fluorophenoxy)oxazolo[5,4-d]pyrimidin-2-yl]-2,6-dimethylphenoxy}cyclobutanecarboxylic acid] | 83% |
